Experimental data from US11364222B2, “Combination therapy for treatment of cancer” (G1 Therapeutics, Inc., priority 2017, dated 2022).
“Also recorded” adds a separate entry of the source. One block for each compound: values may come before it.

Assays:
MCF7:5C = experiment: Cell viability of MCF7:5C (tamoxifen resistant), fluorescent DNA quantitation; type: cell-based; settings: 144 h, read-out: MCF-7:5C IC50
MCF7:WS8 = experiment: Cell viability of MCF7:WS8, fluorescent DNA quantitation; type: cell-based; settings: MCF7:WS8 cells, day 4, total DNA; for IC50: 96 h, read-out: MCF-7WS8 IC50
[1] = tested on: tamoxifen-resistant (TamR) xenograft tumors; experiment: Tamoxifen-resistant (TamR) xenograft tumors, tumor volume; type: in vivo; settings: 30 mg/kg qd and 100 mg/kg qd, approximately 70 days, FIG. 12B
[2] = Glucuronidation in gut intestinal mucosa and liver S9 fraction; type: in vitro ADME; settings: gut intestinal mucosa and human S9 fraction from the liver
[3] = Oral bioavailability (summary statement); settings: in vivo
[4] = tested on: estrogen-receptor positive cell; experiment: Estrogen-receptor positive cell proliferation (summary statement); type: cell-based
[5] = tested on: estrogen-receptor negative cell; experiment: Estrogen-receptor negative cell proliferation (summary statement); type: cell-based
MCF-7 cells [6] = experiment: MCF7 7 day proliferation assay in the presence of 0.1 nM E2 (Hoechst DNA content); type: cell-based; settings: for IC50: Homo sapiens, MCF7, 168 h, read-out: IC50, MCF7 proliferation
LTED xenograft tumors = experiment: LTED xenograft tumors, model of aromatase inhibitor resistance; type: in vivo, OVX nu/nu (ovariectomy nude) mice; settings: Compound 20 5, 10, 30 or 100 mg/kg, 30 days of treatment, FIG. 13
hERG = hERG (Homo sapiens, UniProt Q12809); experiment: hERG inhibition (summary statement)
hERG, sequence (Q12809 whole entry): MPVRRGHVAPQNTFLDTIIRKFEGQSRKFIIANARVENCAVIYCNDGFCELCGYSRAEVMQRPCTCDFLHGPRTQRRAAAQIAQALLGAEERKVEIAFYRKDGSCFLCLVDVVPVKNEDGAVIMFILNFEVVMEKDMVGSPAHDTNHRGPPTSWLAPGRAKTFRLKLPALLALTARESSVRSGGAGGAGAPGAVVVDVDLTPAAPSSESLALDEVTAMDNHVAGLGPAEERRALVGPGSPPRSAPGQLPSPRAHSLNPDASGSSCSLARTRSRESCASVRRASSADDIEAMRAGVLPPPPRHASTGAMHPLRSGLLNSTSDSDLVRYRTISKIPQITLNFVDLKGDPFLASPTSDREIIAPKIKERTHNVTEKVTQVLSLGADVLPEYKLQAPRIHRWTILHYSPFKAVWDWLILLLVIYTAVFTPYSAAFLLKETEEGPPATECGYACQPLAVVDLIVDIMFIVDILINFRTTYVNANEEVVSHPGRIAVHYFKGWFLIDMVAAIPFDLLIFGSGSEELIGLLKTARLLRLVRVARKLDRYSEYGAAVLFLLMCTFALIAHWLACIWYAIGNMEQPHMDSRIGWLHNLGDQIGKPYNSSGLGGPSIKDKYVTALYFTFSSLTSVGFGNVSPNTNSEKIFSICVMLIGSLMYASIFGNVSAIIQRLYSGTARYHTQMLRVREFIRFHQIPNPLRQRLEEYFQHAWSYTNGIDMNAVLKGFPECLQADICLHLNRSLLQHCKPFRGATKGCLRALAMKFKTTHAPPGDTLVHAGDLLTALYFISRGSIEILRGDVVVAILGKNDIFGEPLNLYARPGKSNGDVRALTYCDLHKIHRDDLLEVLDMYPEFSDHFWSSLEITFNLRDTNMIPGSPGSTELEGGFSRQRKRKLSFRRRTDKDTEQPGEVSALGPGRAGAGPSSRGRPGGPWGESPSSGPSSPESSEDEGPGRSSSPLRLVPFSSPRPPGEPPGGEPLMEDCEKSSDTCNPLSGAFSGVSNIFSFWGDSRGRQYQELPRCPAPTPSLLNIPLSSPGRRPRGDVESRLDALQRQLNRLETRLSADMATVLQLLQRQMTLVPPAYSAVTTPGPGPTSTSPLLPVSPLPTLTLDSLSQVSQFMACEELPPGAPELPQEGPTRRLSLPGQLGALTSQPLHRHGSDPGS

MCF-7 cells [7] = experiment: MCF7 7 day proliferation assay in the presence of 20 nM insulin (Hoechst DNA content); type: cell-based; settings: Homo sapiens, MCF7, 168 h, read-out: IC50, MCF7 insulin driven proliferation
estrogen receptor (ER) = molecular target: T1, estrogen receptor (ER) (Homo sapiens, UniProt P03372); settings: MCF7 cells, presence or absence of proteasome pathway inhibitor MG132, FIG. 4
T1 sequence (P03372 1-595): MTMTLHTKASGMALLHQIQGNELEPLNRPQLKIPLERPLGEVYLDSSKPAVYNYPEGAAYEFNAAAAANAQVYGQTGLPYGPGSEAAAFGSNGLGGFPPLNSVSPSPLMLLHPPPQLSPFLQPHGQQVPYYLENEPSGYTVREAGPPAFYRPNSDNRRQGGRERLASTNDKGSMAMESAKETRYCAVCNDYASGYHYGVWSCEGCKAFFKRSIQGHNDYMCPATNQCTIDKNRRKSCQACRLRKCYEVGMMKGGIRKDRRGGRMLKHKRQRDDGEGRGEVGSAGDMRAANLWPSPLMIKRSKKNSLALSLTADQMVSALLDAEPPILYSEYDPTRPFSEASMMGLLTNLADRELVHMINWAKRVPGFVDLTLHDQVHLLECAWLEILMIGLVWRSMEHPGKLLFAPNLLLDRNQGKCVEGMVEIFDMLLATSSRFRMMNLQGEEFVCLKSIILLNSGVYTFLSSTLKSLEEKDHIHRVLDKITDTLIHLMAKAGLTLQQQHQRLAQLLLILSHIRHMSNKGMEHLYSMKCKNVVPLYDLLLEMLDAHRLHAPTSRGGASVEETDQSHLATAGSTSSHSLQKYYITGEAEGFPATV

SMILES: Cc1cc(F)ccc1C(F)(F)c1sc2cc(O)ccc2c1Oc1ccc(/C=C/C(=O)O)cc1 [Compound 16, (E)-3-(4-((2-(Difluoro(4-fluoro-2-methylphenyl)methyl)-6-hydroxybenzo[b]thiophen-3-yl)oxy)phenyl)acrylic acid]
IC50 (MCF7:5C): < 100 nM
IC50 (MCF7:WS8): < 100 nM

SMILES: Cc1cc(F)ccc1C(=O)c1sc2cc(O)ccc2c1Oc1c(F)cc(/C=C/C(=O)O)cc1F [Compound 14, (E)-3-(3,5-Difluoro-4-((2-(4-fluoro-2-methylbenzoyl)-6-hydroxybenzo[b]thiophen-3-yl)oxy)phenyl) acrylic acid]
IC50 (MCF7:5C): > 10 nM
IC50 (MCF7:WS8): > 10 nM

SMILES: CC/C(=C(\c1ccc(O)cc1)c1ccc(OCCN(C)C)cc1)c1ccccc1 [4-hydroxytamoxifen]
IC50 (MCF-7 cells [6]): 3.46 nM

SMILES: Cc1ccc(C(=O)c2sc3cc(O)ccc3c2Oc2ccc(NC(=O)C(=O)O)cc2)c(C)c1 [Compound 19, 2-((4-((2-(2,4-Dimethylbenzoyl)-6-hydroxybenzo[b]thiophen-3-yl)oxy)phenyl)amino)-2-oxoacetic acid]
IC50 (MCF7:5C): > 10 nM
MCF-7WS8 IC50 (nM) (MCF7:WS8): No Inhibition

SMILES: C[C@]12CC[C@@H]3c4ccc(O)cc4C[C@@H](CCCCCCCCC[S+]([O-])CCCC(F)(F)C(F)(F)F)[C@H]3[C@@H]1CC[C@@H]2O (stereo partly shown) [fulvestrant]
IC50 (MCF-7 cells [6]): 0.86 nM
IC50 (MCF-7 cells [7]): 0.149 nM

SMILES: Cc1cc(F)ccc1C1(c2sc3cc(O)ccc3c2Oc2ccc(/C=C/C(=O)O)cc2)CC1 [Compound 17, (E)-3-(4-((2-(1-(4-Fluoro-2-methylphenyl)cyclopropyl)-6-hydroxybenzo[b]thiophen-3-yl)oxy)phenyl) acrylic acid]
IC50 (MCF7:5C): < 100 nM
IC50 (MCF7:WS8): < 100 nM

SMILES: Cc1cc(F)ccc1C(=O)c1sc2cc(O)ccc2c1Oc1ccc(NC(=O)C(=O)O)cc1 [Compound 18, 2-((4-((2-(4-Fluoro-2-methylbenzoyl)-6-hydroxybenzo[b]thiophen-3-yl)oxy)phenyl)amino)-2-oxoacetic acid]
MCF-7WS8 IC50 (nM) (MCF7:WS8): No Inhibition

SMILES: C[C@@H]1Cc2c([nH]c3ccccc23)[C@@H](c2c(F)cc(/C=C/C(=O)O)cc2F)N1CC(C)(C)F [AZD9496]
IC50 (MCF-7 cells [6]): 0.04 nM
IC50 (MCF-7 cells [7]): 0.002 nM

SMILES: O=C(O)/C=C/c1ccc(Oc2c(C(=O)c3ccc(O)cc3)sc3cc(O)ccc23)cc1 [Compound 2, (E)-3-(4-((6-Hydroxy-2-(4-hydroxybenzoyl)benzo[b]thiophen-3-yl)oxy)phenyl) acrylic acid]
MCF-7WS8 IC50 (nM) (MCF7:WS8): No Inhiibition

SMILES: C[C@]12C[C@H](c3ccc(OCCCCCS(=O)(=O)CCCC(F)(F)C(F)(F)F)cc3)[C@@H]3c4ccc(O)cc4CC[C@H]3[C@@H]1CC[C@@H]2O [RU 58668]
IC50 (MCF-7 cells [6]; 0.1 nM estradiol (E2), 7 day): 0.052 nM
IC50 (MCF-7 cells [7]; 20 nM insulin, 7 day): 0.013 nM

SMILES: Cc1cc(F)ccc1C(=O)c1sc2cc(O)ccc2c1Oc1ccc(/C=C/C(=O)O)cc1F [Compound 15, (E)-3-(3-Fluoro-4-((2-(4-fluoro-2-methylbenzoyl)-6-hydroxybenzo[b]thiophen-3-yl)oxy)phenyl) acrylic acid]
IC50 (MCF7:5C): < 10 nM
IC50 (MCF7:WS8): < 10 nM

Now from value to compound, other results behind:

glucuronidation [2]: observed
oral bioavailability [3]: good
IC50 (MCF-7 cells [6]; 0.1 nM estradiol (E2), 7 day): 0.26 nM
IC50 (MCF-7 cells [7]; 20 nM insulin, 7 day): 0.028 nM
degradation of the estrogen receptor (ESR1a) with or without MG132 (estrogen receptor (ER)): dependent on the absence of MG132
SMILES: Cc1cc(F)cc(C)c1C(=O)c1sc2cc(O)ccc2c1Oc1ccc(/C=C/C(=O)O)cc1 [Compound 20, (E)-3-(4-((2-(4-Fluoro-2,6-dimethylbenzoyl)-6-hydroxybenzo[b]thiophen-3-yl)oxy)phenyl) acrylic acid]
tumor volume, Compound 20 alone [1]: effective in decreasing tumor volume
IC50 [4]: < 1 nM
IC50 [5]: > 10 nM
times more potent than fulvestrant (MCF-7 cells [6]; 0.1 nM E2, 7 day proliferation): ~4 times
tumor volume (LTED xenograft tumors): decrease in tumor volume correlated with the dose level; also recorded: effective in decreasing tumor volume at all doses
IC50 (hERG): > 10000 nM

IC50 (MCF-7 cells [6]): 0.77 nM
SMILES: O=C(c1ccc(OCCN2CCCCC2)cc1)c1c(-c2ccc(O)cc2)sc2cc(O)ccc12 [raloxifene]

IC50 (MCF-7 cells [6]; 0.1 nM estradiol (E2), 7 day): 1.81 nM
SMILES: CC/C(=C(\c1ccccc1)c1ccc(/C=C/C(=O)O)cc1)c1ccc(O)cc1 [GW-7604]

IC50 (MCF-7 cells [6]): 72 nM
SMILES: Cc1c(-c2ccc(O)cc2)n(Cc2ccc(OCCN3CCCCCC3)cc2)c2ccc(O)cc12 [bazedoxifene]

IC50 (MCF-7 cells [6]; 0.1 nM estradiol (E2), 7 day): 1.84 nM
IC50 (MCF-7 cells [7]; 20 nM insulin, 7 day): 0.055 nM
SMILES: CC/C(=C(/c1ccc(/C=C/C(=O)O)cc1)c1ccc2[nH]ncc2c1)c1ccc(F)cc1Cl [GDC-0810]

IC50 (MCF-7 cells [6]; 0.1 nM estradiol (E2), 7 day): 946 nM
SMILES: CC/C(=C(\c1ccccc1)c1ccc(/C=C/C(=O)O)cc1)c1ccccc1 [GW-5638, Etacstil]

IC50 (MCF-7 cells [6]; 0.1 nM estradiol (E2), 7 day): 0.17 nM
SMILES: Oc1ccc2c(c1)CC[C@H](c1ccccc1)[C@@H]2c1ccc(OCCN2CCCC2)cc1 [lasofoxofene, Lasofoxifene]
